Calls of active or inactive are those of the source.
Experiments:
[1] = biological target: Induced myeloid leukemia cell differentiation protein Mcl-1 (Homo sapiens, UniProt Q07820); type: functional
[2] = biological target: T1, Mannose-6-phosphate isomerase (Homo sapiens, UniProt P34949); experiment: human PMI inhibitors, high substrate, primary screen, biochemical, fluorescence intensity, high mannose 6-phosphate (AID 1220)
T1 sequence (P34949 whole entry): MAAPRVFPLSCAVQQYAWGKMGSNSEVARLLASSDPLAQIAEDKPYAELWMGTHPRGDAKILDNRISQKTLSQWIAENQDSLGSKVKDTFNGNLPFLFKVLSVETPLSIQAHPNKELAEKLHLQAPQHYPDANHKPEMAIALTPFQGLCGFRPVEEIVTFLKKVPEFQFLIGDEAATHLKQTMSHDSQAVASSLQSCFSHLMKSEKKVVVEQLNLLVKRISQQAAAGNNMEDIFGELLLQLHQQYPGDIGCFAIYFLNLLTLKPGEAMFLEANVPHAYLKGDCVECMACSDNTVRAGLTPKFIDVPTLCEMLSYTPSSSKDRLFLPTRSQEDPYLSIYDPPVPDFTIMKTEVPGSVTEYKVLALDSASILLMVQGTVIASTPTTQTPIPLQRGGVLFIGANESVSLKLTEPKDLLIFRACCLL

[3] = biological target: Hepatocyte nuclear factor 4-alpha (Homo sapiens, UniProt P41235); type: functional, cell-based;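 note: biochemical luminescence-based dose-response counterscreen measuring inhibition of HNF4 dimerization, run alongside a screen for blockers of ABHD5–perilipin-5 interaction; split luciferase complementation of HNF4 fusion proteins in cell lysate measuring dimerization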
[4] = nonselective inhibitors of cellular cAMP signaling, dose response, counter-screen for MC4R biased antagonist project, cell-based, TR-FRET cAMP detection (AID 602305); type: functional;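 note: U2OS cells stimulated with forskolin near its EC80 as the cAMP inducer; potency is for inhibition of forskolin-stimulated cAMP signaling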
Melanocortin receptor 4 = Melanocortin receptor 4 (Homo sapiens, UniProt P32245); experiment: MC4R antagonist potency on cAMP, dose response, cell-based, TR-FRET, biased antagonists (AID 602298); type: functional;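 note: antagonist potency against agonist-stimulated cAMP production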
[5] = growth suppression of PTEN-null colon cells, dose response, cell-based, HCT116 PTEN knockout (AID 1047); type: functional;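 note: HCT116 colon tumor cells with PTEN knocked out; cells exposed to compound for 60 hours before readout; potency for loss of cell viability measured by luminescence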
[6] = growth suppression of beta-catenin-knockout colon cells, dose response, cell-based, HCT116, human colon tumor (AID 1045); type: functional;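 note: HCT116 colon tumor cells with beta catenin knocked out; cells exposed to compound for 60 hours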
Steroidogenic factor 1 = Steroidogenic factor 1 (Homo sapiens, UniProt Q13285); experiment: Counterscreen for inverse agonists of the liver receptor homolog-1 (LRH-1; NR5A2): Luminescence-based cell-based high throughput dose response assay to identify inverse agonists of the Steroidogenic Factor 1 Nuclear Receptor (SF1; NR5A1).; type: functional
[7] = StAR promoter reporter inhibition counter-screen, dose response, counter-screen for LRH-1 inverse agonist project, cell-based, luminescence, luciferase reporter (AID 651969); type: functional
[8] = biological target: Nuclear receptor subfamily 5 group A member 2 (Homo sapiens, UniProt O00482); type: functional, cell-based;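 note: HEK293T cells transfected with LRH-1 and a StAR promoter luciferase reporter; potency for inhibitors that lower LRH-1 driven reporter light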
[9] = biological target: Potassium voltage-gated channel subfamily KQT member 2 (Rattus norvegicus, UniProt O88943); experiment: KCNQ2 potassium channel inhibitors, dose response, cell-based, automated electrophysiology, set II, rat KCNQ2 (AID 588637); type: functional
[10] = biological target: Glyceraldehyde-3-phosphate dehydrogenase (Homo sapiens, UniProt P04406)
[11] = biological target: T2, Apoptotic protease-activating factor 1 (Homo sapiens, UniProt O14727); experiment: SAR analysis of small molecule Activators of Apaf-1 in a Fluorescent assay.; type: functional; settings: read-out: EC50_Mean;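 note: caspase-3 cleavage of fluorogenic Rh110 DEVD substrate downstream of apoptosome activation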
T2 sequence (O14727 whole entry): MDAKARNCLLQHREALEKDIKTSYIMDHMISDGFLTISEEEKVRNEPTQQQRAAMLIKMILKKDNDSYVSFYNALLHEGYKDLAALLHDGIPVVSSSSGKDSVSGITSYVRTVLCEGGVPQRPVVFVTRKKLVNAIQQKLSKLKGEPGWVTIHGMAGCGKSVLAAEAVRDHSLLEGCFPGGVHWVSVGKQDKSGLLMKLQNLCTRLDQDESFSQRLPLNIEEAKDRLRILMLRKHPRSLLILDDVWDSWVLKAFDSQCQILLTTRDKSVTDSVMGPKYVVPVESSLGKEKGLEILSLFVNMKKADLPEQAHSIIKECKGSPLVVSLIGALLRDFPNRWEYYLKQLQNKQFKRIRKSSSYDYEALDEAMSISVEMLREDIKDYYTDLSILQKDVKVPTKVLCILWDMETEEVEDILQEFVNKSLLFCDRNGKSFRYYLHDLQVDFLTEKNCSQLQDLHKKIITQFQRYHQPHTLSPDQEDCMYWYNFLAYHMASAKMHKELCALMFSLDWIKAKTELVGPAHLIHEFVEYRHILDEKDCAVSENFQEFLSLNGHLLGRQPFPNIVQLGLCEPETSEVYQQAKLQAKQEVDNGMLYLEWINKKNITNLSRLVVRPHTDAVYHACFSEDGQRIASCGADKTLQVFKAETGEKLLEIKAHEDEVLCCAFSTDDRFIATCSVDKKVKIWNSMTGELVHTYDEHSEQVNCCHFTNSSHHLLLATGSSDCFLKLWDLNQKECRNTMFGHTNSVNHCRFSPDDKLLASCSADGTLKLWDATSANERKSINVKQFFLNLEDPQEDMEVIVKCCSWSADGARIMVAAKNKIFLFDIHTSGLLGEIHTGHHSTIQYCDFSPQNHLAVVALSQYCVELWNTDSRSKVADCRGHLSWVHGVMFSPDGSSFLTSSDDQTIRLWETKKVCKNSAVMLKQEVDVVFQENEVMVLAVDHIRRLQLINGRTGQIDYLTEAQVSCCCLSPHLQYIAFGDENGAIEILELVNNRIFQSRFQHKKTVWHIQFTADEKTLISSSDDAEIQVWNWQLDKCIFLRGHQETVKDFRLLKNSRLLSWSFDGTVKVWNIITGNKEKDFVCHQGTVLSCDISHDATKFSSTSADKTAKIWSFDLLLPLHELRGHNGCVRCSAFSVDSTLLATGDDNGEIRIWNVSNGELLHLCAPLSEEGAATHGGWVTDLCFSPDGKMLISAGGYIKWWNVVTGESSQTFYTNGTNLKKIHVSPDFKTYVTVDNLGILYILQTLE

[12] = biological target: Tyrosine-protein kinase JAK2 (Homo sapiens, UniProt O60674); type: functional;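 note: JAK2 tested as one member of a kinase panel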
[13] = biological target: Tyrosine-protein kinase JAK3 (Homo sapiens, UniProt P52333); type: functional
Paired box protein Pax-8 = Paired box protein Pax-8 (Homo sapiens, UniProt Q06710); experiment: inhibitors of PAX8-driven TPO luciferase reporter, dose response, RMG-I cells, cherry-pick (AID 687027); type: functional, cell-based;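 note: luciferase reporter driven by Pax8 target thyroperoxidase promoter measured by SteadyGlo luminescence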
Interleukin-8 [14] = biological target: T3, Interleukin-8 (Homo sapiens, UniProt P10145); experiment: Dose Response confirmation of uHTS small molecule hits for cystic fibrosis induced NFkb Inhibitors in a PAF-induced IL8 counterscreen.; type: functional; settings: read-out: IC50_Mean
Interleukin-8 [15] = biological target: T3, Interleukin-8; experiment: Dose Response confirmation of uHTS small molecule hits for cystic fibrosis induced NFkb Inhibitors in a TNFa-induced IL8 counterscreen.; type: functional; settings: read-out: IC50_Mean
[16] = Counterscreen for activators of the function of SWI/SNF related, matrix associated, actin dependent regulator of chromatin, subfamily a, member 2 (SMARCA2, BRM): Luminescence-based cell-based high throughput dose response assay to identify non-selective compounds using the VP16 reporter assay.; type: functional
[17] = biological target: SWI/SNF-related matrix-associated actin-dependent regulator of chromatin subfamily A member 2 (Homo sapiens, UniProt P51531); experiment: Luminescence-based cell-based high throughput dose response assay to identify activators of the function of SWI/SNF related, matrix associated, actin dependent regulator of chromatin, subfamily a, member 2 (SMARCA2, BRM).; type: functional

Melanocortin receptor 4, sequence (P32245 whole entry): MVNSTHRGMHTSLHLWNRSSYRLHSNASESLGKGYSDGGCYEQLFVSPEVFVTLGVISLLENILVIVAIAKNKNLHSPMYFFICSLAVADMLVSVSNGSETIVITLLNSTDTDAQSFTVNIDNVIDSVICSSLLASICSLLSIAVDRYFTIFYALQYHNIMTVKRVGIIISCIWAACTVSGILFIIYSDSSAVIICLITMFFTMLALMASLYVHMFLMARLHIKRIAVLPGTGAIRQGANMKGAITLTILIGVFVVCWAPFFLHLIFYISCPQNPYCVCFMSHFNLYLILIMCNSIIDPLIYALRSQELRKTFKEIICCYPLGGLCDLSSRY
T3 sequence (P10145 whole entry): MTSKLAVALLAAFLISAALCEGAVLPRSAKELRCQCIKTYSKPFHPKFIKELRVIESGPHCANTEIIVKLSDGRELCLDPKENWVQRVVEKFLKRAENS
Tyrosine-protein kinase JAK2, sequence (O60674 whole entry): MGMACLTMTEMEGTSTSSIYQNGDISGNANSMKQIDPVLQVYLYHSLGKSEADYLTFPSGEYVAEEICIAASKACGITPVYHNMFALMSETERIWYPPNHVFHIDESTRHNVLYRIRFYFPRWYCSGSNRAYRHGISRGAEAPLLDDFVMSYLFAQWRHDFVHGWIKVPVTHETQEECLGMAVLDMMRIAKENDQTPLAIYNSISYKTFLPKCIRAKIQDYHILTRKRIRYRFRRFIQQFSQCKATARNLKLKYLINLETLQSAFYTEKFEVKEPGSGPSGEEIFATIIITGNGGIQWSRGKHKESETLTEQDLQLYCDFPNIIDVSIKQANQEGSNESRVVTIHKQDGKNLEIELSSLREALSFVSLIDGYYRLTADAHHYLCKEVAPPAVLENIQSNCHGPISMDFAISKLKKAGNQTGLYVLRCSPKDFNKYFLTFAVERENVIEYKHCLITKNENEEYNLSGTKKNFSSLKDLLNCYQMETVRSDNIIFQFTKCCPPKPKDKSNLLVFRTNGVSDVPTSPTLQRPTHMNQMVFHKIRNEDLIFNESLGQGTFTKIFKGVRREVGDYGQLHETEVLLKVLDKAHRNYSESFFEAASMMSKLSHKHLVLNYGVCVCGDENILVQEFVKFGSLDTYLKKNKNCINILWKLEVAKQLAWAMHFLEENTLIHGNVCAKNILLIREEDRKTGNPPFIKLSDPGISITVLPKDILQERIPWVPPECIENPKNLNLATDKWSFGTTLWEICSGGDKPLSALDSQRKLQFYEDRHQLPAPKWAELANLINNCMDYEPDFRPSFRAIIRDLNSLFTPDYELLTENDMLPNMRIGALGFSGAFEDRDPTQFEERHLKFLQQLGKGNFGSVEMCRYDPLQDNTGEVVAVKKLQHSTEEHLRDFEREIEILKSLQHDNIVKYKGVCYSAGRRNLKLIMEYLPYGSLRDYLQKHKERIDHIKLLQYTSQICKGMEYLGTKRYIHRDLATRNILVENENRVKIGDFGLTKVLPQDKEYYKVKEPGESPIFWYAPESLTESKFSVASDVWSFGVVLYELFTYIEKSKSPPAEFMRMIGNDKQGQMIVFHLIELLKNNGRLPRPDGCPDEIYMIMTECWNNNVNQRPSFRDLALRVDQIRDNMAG
Nuclear receptor subfamily 5 group A member 2, sequence (O00482 whole entry): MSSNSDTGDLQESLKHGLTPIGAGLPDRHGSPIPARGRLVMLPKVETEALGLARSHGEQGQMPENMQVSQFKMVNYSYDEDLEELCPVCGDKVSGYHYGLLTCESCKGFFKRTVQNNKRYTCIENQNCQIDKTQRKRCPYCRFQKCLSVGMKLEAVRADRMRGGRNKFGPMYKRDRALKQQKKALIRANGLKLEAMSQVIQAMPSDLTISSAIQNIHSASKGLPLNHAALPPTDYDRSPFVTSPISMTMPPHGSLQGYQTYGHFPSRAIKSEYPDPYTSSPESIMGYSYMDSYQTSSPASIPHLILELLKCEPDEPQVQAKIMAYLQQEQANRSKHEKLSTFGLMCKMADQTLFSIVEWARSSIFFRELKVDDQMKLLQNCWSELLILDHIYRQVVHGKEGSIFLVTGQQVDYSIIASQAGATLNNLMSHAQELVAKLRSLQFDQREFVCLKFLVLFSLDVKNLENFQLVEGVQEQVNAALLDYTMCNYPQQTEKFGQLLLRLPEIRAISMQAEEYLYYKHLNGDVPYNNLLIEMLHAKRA
Induced myeloid leukemia cell differentiation protein Mcl-1, sequence (Q07820 whole entry): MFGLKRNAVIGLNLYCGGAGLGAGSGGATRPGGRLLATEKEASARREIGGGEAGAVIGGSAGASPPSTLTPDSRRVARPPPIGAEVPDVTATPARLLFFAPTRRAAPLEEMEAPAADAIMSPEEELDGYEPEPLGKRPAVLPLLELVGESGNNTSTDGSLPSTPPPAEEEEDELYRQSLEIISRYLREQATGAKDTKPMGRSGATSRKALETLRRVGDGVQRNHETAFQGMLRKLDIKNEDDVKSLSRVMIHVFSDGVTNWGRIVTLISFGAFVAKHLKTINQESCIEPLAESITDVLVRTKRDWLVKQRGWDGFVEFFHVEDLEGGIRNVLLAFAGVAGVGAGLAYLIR
Tyrosine-protein kinase JAK3, sequence (P52333 whole entry): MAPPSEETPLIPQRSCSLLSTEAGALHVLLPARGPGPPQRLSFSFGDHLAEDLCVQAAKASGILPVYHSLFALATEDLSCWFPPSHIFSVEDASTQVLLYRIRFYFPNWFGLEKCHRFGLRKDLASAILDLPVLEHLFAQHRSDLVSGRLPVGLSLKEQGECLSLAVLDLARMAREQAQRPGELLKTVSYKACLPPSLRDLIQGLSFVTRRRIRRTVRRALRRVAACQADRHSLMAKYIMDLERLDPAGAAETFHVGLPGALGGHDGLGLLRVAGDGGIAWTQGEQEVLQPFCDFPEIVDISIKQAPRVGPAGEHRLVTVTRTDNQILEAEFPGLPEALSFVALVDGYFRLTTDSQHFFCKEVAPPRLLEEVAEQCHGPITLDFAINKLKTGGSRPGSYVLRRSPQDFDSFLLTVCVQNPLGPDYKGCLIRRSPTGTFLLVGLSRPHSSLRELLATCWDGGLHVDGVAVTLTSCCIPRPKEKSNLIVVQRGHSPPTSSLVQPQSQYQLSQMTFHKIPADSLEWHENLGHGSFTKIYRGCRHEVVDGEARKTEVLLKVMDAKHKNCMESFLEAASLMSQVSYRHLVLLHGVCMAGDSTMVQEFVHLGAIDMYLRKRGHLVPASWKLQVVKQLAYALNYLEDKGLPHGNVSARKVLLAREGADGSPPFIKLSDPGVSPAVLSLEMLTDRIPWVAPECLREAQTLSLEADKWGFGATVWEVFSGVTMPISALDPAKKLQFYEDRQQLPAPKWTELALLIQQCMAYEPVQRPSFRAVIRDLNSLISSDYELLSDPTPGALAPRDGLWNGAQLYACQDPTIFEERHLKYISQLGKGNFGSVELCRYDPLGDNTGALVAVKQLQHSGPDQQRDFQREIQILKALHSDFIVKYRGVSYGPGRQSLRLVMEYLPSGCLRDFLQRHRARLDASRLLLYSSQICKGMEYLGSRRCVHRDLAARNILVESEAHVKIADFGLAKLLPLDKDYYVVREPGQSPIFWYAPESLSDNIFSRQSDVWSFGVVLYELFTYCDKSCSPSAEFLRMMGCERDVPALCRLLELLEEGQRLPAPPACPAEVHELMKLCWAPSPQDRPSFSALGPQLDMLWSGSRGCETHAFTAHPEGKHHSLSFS
Potassium voltage-gated channel subfamily KQT member 2, sequence (O88943 whole entry): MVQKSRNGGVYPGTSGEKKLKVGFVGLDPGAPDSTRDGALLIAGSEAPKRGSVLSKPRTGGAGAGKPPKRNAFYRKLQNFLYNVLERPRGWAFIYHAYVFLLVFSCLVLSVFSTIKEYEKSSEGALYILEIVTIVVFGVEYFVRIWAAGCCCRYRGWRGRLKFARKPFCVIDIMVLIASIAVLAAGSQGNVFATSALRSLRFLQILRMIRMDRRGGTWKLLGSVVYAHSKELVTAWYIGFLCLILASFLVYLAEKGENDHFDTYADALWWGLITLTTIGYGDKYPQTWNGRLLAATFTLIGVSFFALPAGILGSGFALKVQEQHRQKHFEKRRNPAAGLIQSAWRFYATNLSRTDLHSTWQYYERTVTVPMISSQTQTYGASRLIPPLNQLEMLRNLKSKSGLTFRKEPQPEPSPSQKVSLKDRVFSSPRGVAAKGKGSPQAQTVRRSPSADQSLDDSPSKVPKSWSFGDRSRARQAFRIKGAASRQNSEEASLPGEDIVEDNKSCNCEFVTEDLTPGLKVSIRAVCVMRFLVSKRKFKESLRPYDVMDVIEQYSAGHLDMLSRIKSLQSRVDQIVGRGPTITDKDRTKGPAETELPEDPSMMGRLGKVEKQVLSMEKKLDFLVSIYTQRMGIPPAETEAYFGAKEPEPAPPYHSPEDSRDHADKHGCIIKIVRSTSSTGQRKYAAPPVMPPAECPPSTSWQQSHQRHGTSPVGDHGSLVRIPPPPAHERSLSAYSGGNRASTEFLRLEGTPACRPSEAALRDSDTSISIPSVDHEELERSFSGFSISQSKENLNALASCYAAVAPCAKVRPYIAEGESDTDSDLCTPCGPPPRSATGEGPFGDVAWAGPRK
Steroidogenic factor 1, sequence (Q13285 whole entry): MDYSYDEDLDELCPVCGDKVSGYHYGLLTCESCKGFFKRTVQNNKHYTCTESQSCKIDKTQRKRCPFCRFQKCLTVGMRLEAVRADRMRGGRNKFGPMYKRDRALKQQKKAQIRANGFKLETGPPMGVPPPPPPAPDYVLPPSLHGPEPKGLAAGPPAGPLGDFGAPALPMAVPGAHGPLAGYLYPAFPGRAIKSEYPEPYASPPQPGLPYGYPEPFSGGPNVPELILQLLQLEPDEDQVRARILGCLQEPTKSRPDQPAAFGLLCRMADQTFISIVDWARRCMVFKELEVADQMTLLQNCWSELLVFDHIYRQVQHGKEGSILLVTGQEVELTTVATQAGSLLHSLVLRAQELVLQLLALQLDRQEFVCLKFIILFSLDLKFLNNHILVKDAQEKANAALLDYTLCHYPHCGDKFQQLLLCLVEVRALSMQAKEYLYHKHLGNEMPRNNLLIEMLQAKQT

Compound: CCOC(=O)c1c(C)oc2c1c(CN1CCN(CCO)CC1)c(O)c1ccccc12
- IC50 [1]: 1.13 µM (active)
- IC50 [2]: > 50 µM (not active)
- IC50 [3]: 2.31 µM (active)

Compound: CCOC(=O)N1CCN(CCC(=O)c2ccc(OC)cc2)CC1
- IC50 [4]: > 64.5 µM (inactive)
- IC50 (Melanocortin receptor 4): > 64.5 µM (inactive)

Compound: CCc1ccc(OCC(=O)NC(N=C(S)Nc2ccccc2OC)C(Cl)(Cl)Cl)cc1 (configuration not stated)
- IC50 [4]: > 64.6 µM (inactive)
- IC50 (Melanocortin receptor 4): > 64.6 µM (inactive)
- EC50 [5]: 9.76 µM (active)
- EC50 [6]: 9.32 µM (active)

Compound: CCc1cc(=O)oc2c(C)c(OCC(=O)NCCN3CCOCC3)ccc12
- IC50 (Steroidogenic factor 1): 9.97 µM (active)
- IC50 [7]: 35.9 µM (inactive)
- IC50 [8]: 35.9 µM (inactive)

Compound: Cc1cc(C)c(/N=C2\CCCN2Cc2ccccc2)c(C#N)c1
- IC50 [9]: 1.99 µM (active)
- IC50 [10]: > 100 µM (not active)

Compound: COc1ccccc1NC(=O)CCS(=O)(=O)c1ccc2c(c1)NC(=O)C(C)S2 (configuration not stated)
- EC50 [11]: > 100 µM (inactive)

Compound: O=c1[nH]c2cnc(-n3cnc4ccc(F)cc43)nc2n1C1CCOc2c(F)cccc21 (configuration not stated)
- Ki [12]: 0.00501 µM (active)
- Ki [13]: 0.00501 µM (active)

Compound: C=C1C(=O)[C@]23C[C@H]1CC[C@H]2[C@]1(C)[C@@H](OC(C)=O)CC[C@@](C)(C(=O)O)[C@H]1C[C@@H]3O
- AC50 (Paired box protein Pax-8): 4.07 µM (active)
- IC50 (Interleukin-8 [14]): 0.293 µM (active)
- IC50 (Interleukin-8 [15]): > 79 µM (inactive)
- EC50 [16]: > 91.3 µM (inactive)
- EC50 [17]: > 91.3 µM (inactive)

— ChEMBL document CHEMBL1201862, “PubChem BioAssay data set” (2004)
